US11312925B2, “Pyrithione preservative system and C1-C12 ethoxylated alcohol in hard surface cleaning products” (ECOLAB USA INC., priority 2015, dated 2022)

Experiments:
[1] = Compatibility in solution with 4500 MW polyacrylic acid polymer under acidic conditions; format: physicochemical
[2] = test system: Bacterial cocktail (Staphylococcus aureus ATCC 6538, Escherichia coli ATCC 11229, Enterobacter aerogenes ATCC 13048, Burkholderia cepacia ATCC 25416 …); test: Preservative test over 28 days in 7 and 18.5 grain water, bacterial counts (Example 5); format: cell-based; settings: 140 ppm with 2000 ppm monosodium citrate versus 300 ppm with no added acidity
Description: (§1) For USP bacteria there must be no less than 2.0 log reduction from the initial inoculated count at 14 days, and no increase from the 14 days' count at 28 days. A result of “no increase” is defined as not more than 0.5 log higher than previous value. For additional standards examined the preservation capability of a composition is evaluated over a predetermined time (as identified in the Example) and the inhibition or reduction of microbial growth is assessed, without the requirement for complete elimination of the entire microbial inoculum.
Formulations of pyrithione preservatives were evaluated in existing solid rinse aid formulations for USP and commercial standards, modified to incorporate field isolate from a sump solution. The survival of both bacterial cocktail and fungal cocktails (as described in prior Example) were monitored over 28 days.
The bacteria inoculum was made up of equal parts of the organisms listed (incubated in tryptone glucose extract agar at 32° C. for 3 days):

[3] = test system: Yeast and mold cocktail (Canidia albicans ATCC 10231, Saccharomyces cerevisiae ATCC 834, Aspergillus niger ATCC 16404); test: Preservative test over 28 days in 7 and 18.5 grain water, yeast and mold counts (Example 5); format: cell-based; settings: 140 ppm with 2000 ppm monosodium citrate versus 200 ppm bis (3-aminopropyl) dodecylamine in hard water
Description: as §1
The survival of both bacterial cocktail and fungal cocktails (as described in prior Example) were monitored over 28 days.
The yeast and mold inoculum was made up of equal parts of the organisms listed (incubated in sabourand agar at 26° C. for 3 days):

[4] = test system: yeast and mold inoculum cocktail (Canidia albicans ATCC 10231, Saccharomyces cerevisiae ATCC 834, Aspergillus niger ATCC 16404); settings: over 3 weeks in sump solution; compared with the other evaluated preservatives; FIG. 1
Description: In order to identify preservative systems for replacing Kathon CG-ICP (isothiazolinone blend) from solid rinse aid formulations, various potential preservatives were evaluated.
For performance reasons, the preservatives were tested with the 4500 MW polyacrylic acid polymer and 10% level of monosodium citrate or fumaric acid.
The test temperature was ambient (20° C.-26° C.) and exposure times were 0, 7, 14, 28 and 35 days.
The preservatives were formulated at their upper concentration levels before triggering the use of personal protective equipment and measured fungi recovered and pH.

| Compound | behaviour in solution with the 4500 MW polyacrylic acid polymer [1] | inhibition of microorganisms (especially bacteria), comparison [2] | preservation performance, comparison [3] | impact at reducing fungi (mean log fungi reduction) [4] |
| --- | --- | --- | --- | --- |
| CCCCCCCCCCCCN(CCCN)CCCN [bis (3-aminopropyl) dodecylamine, Bis (3-aminopropyl) dodecylamine] | precipitate out of solution |  |  |  |
| On1ccccc1=S.[Na] [sodium pyrithione, 1-hydroxy-2(1H)-pyridinethione, sodium salt] |  | much more effective at inhibiting microorganisms | outperformed | greatest impact at reducing fungi |
